In the NIST ThermoML archive (doi:10.1021/je2010209):
Numbers after ± are expanded uncertainties.

Assay: xn = mol fraction of the nth substance listed
Details: 101 kPa, Liquid; for speed of sound: Sing-around technique in a fixed-path interferometer; for mass density: Vibrating tube method

COCCOCCO [2-(2-methoxyethoxy)ethanol] + CCCCn1cc[n+](C)c1.F[B-](F)(F)F
Details	mass density [kg/m3]	speed of sound [m/s]
288.15 K, x2 = 0	1024.6 ± 0.89	1451 ± 5
288.15 K, x2 = 0.0308	1035.12 ± 0.91	1461 ± 5
288.15 K, x2 = 0.1053	1059.04 ± 0.96	1490 ± 5
288.15 K, x2 = 0.2065	1086.98 ± 1	1514 ± 5
288.15 K, x2 = 0.3137	1110.84 ± 1.1	1533 ± 5
288.15 K, x2 = 0.4002	1126.77 ± 1.1	1544 ± 5
288.15 K, x2 = 0.5035	1143.12 ± 1.1	1559 ± 5
288.15 K, x2 = 0.6083	1158.14 ± 1.2	1568 ± 5
288.15 K, x2 = 0.7023	1170.82 ± 1.2	1575 ± 5
288.15 K, x2 = 0.8291	1187.12 ± 1.2	1580 ± 5
288.15 K, x2 = 0.9381	1199.91 ± 1.3	1583 ± 5
293.15 K, x2 = 0	1020.2 ± 0.88	1434 ± 5
293.15 K, x2 = 0.0308	1030.69 ± 0.9	1445 ± 5
293.15 K, x2 = 0.1053	1054.73 ± 0.95	1473 ± 5
293.15 K, x2 = 0.2065	1082.85 ± 1	1499 ± 5
293.15 K, x2 = 0.3137	1106.71 ± 1.1	1517 ± 5
293.15 K, x2 = 0.4002	1122.56 ± 1.1	1531 ± 5
293.15 K, x2 = 0.5035	1138.99 ± 1.1	1546 ± 5
293.15 K, x2 = 0.6083	1154.16 ± 1.2	1555 ± 5
293.15 K, x2 = 0.7023	1167.07 ± 1.2	1563 ± 5
293.15 K, x2 = 0.8291	1183.25 ± 1.2	1572 ± 5
293.15 K, x2 = 0.9381	1196.01 ± 1.3	1574 ± 5
298.15 K, x2 = 0	1015.79 ± 0.87	1416 ± 5
298.15 K, x2 = 0.0308	1026.51 ± 0.89	1428 ± 5
298.15 K, x2 = 0.1053	1050.61 ± 0.94	1457 ± 5
298.15 K, x2 = 0.2065	1078.49 ± 1	1483 ± 5
298.15 K, x2 = 0.3137	1102.51 ± 1.1	1503 ± 5
298.15 K, x2 = 0.4002	1118.58 ± 1.1	1518 ± 5
298.15 K, x2 = 0.5035	1135.22 ± 1.1	1533 ± 5
298.15 K, x2 = 0.6083	1150.52 ± 1.2	1543 ± 5
298.15 K, x2 = 0.7023	1163.46 ± 1.2	1551 ± 5
298.15 K, x2 = 0.8291	1180 ± 1.2	1560 ± 5
298.15 K, x2 = 0.9381	1192.92 ± 1.3	1563 ± 5
303.15 K, x2 = 0	1011.36 ± 0.86	1399 ± 5
303.15 K, x2 = 0.0308	1022.02 ± 0.89	1411 ± 5
303.15 K, x2 = 0.1053	1046.36 ± 0.93	1441 ± 5
303.15 K, x2 = 0.2065	1074.58 ± 0.99	1468 ± 5
303.15 K, x2 = 0.3137	1098.6 ± 1	1489 ± 5
303.15 K, x2 = 0.4002	1114.55 ± 1.1	1504 ± 5
303.15 K, x2 = 0.5035	1131.18 ± 1.1	1519 ± 5
303.15 K, x2 = 0.6083	1146.73 ± 1.1	1530 ± 5
303.15 K, x2 = 0.7023	1160.08 ± 1.2	1539 ± 5
303.15 K, x2 = 0.8291	1176.92 ± 1.2	1546 ± 5
303.15 K, x2 = 0.9381	1189.62 ± 1.2	1552 ± 5
308.15 K, x2 = 0	1006.92 ± 0.85	1382 ± 5
308.15 K, x2 = 0.0308	1017.5 ± 0.88	1395 ± 5
308.15 K, x2 = 0.1053	1042 ± 0.93	1425 ± 5
308.15 K, x2 = 0.2065	1070.56 ± 0.98	1453 ± 5
308.15 K, x2 = 0.3137	1094.68 ± 1	1474 ± 5
308.15 K, x2 = 0.4002	1110.65 ± 1.1	1490 ± 5
308.15 K, x2 = 0.5035	1127.3 ± 1.1	1506 ± 5
308.15 K, x2 = 0.6083	1142.95 ± 1.1	1517 ± 5
308.15 K, x2 = 0.7023	1156.36 ± 1.2	1526 ± 5
308.15 K, x2 = 0.8291	1173.24 ± 1.2	1534 ± 5
308.15 K, x2 = 0.9381	1185.91 ± 1.2	1540 ± 5
313.15 K, x2 = 0	1002.47 ± 0.84	1366 ± 5
313.15 K, x2 = 0.0308	1013.14 ± 0.87	1378 ± 5
313.15 K, x2 = 0.1053	1037.68 ± 0.92	1409 ± 5
313.15 K, x2 = 0.2065	1066.49 ± 0.98	1437 ± 5
313.15 K, x2 = 0.3137	1090.91 ± 1	1460 ± 5
313.15 K, x2 = 0.4002	1107.01 ± 1.1	1477 ± 5
313.15 K, x2 = 0.5035	1123.64 ± 1.1	1493 ± 5
313.15 K, x2 = 0.6083	1139.19 ± 1.1	1505 ± 5
313.15 K, x2 = 0.7023	1152.49 ± 1.2	1514 ± 5
313.15 K, x2 = 0.8291	1169.38 ± 1.2	1523 ± 5
313.15 K, x2 = 0.9381	1182.2 ± 1.2	1529 ± 5
318.15 K, x2 = 0	998.009 ± 0.83	1349 ± 5
318.15 K, x2 = 0.0308	1008.9 ± 0.86	1362 ± 5
318.15 K, x2 = 0.1053	1033.44 ± 0.91	1393 ± 5
318.15 K, x2 = 0.2065	1062 ± 0.97	1422 ± 5
318.15 K, x2 = 0.3137	1086.38 ± 1	1447 ± 5
318.15 K, x2 = 0.4002	1102.75 ± 1.1	1464 ± 5
318.15 K, x2 = 0.5035	1119.79 ± 1.1	1480 ± 5
318.15 K, x2 = 0.6083	1135.51 ± 1.1	1494 ± 5
318.15 K, x2 = 0.7023	1148.84 ± 1.2	1503 ± 5
318.15 K, x2 = 0.8291	1165.68 ± 1.2	1512 ± 5
318.15 K, x2 = 0.9381	1178.57 ± 1.2	1519 ± 5
